According to article PMC6660985 (Biopolymers, 2019):

How the values were obtained:
[1] = system: C. neoformans strain H99S; test: Synergy testing; type: cell-based, Cryptococcus neoformans; conditions: for MIC: Cryptococcus neoformans, H99S, read-out: MIC-B, Drug Alone; for MIC-B, Combination: Drug B in combination with AEC5, average of three independent experiments; for FIC index (FICi): combination of the labelled Drug B with AEC5 (Drug A); for interaction with AEC5 by FICi: combination of the labelled drug with AEC5; for change of the drug's MIC when combined with AEC5: drop of MIC, combination versus alone
C. neoformans = conditions: cited from earlier work

Nc1[nH]c(=O)ncc1F [Flucytosine, flucytosine]
MIC [1]: 4 µg/mL
MIC-B, Combination [1]: 0.25 µg/mL
FIC index (FICi) [1]: 0.23
interaction with AEC5 by FICi [1]: synergistic (FICi < 0.5 synergistic)

OC(Cn1cncn1)(Cn1cncn1)c1ccc(F)cc1F [Fluconazole, fluconazole]
MIC [1]: 8 µg/mL
MIC-B, Combination [1]: 2 µg/mL
FIC index (FICi) [1]: 0.75
interaction with AEC5 by FICi [1]: indifferent (0.5 ≤ FICi ≤ 4 indifferent)
change of the drug's MIC when combined with AEC5 [1]: four-fold
concentration at which the compound becomes fungicidal (C. neoformans; against C. neoformans, primarily fungistatic below): > 8 x MIC
time for 50% reduction in fungal growth (C. neoformans; fluconazole against C. neoformans): 48 to 72 h

C[C@@H]1[C@H](O)[C@@H](C)/C=C/C=C/C=C/C=C/C=C/C=C/C=C/[C@H](O[C@@H]2O[C@H](C)[C@@H](O)[C@H](N)[C@@H]2O)C[C@@H]2O[C@](O)(C[C@@H](O)C[C@@H](O)[C@H](O)CC[C@@H](O)C[C@@H](O)CC(=O)O[C@H]1C)C[C@H](O)[C@H]2C(=O)O [Amphotericin B, amphotericin B]
MIC [1]: 0.0156 µg/mL
MIC-B, Combination [1]: 0.0156 µg/mL
FIC index (FICi) [1]: 1.50
interaction with AEC5 by FICi [1]: indifferent (0.5 ≤ FICi ≤ 4 indifferent)
change of the drug's MIC when combined with AEC5 [1]: does not change
time to reduce fungal growth by 50% (C. neoformans; clinical isolates from HIV/AIDS patients): ≥ 10 h
